Reference: ChEMBL document CHEMBL5214927, “Recent advance on carbamate-based cholinesterase inhibitors as potential multifunctional agents against Alzheimer's disease” (Eur J Med Chem, 2022)

Assays:
[1] = biological target: T1, Amine oxidase [flavin-containing] B (Homo sapiens, UniProt P27338); experiment: Displacement of 14C-phenylethylamine from MAO-B (unknown origin) preincubated for 60 mins followed by substrate addition measured after 20 mins in presence of clorgyline by liquid scintillation counting method
T1 sequence (P27338 whole entry): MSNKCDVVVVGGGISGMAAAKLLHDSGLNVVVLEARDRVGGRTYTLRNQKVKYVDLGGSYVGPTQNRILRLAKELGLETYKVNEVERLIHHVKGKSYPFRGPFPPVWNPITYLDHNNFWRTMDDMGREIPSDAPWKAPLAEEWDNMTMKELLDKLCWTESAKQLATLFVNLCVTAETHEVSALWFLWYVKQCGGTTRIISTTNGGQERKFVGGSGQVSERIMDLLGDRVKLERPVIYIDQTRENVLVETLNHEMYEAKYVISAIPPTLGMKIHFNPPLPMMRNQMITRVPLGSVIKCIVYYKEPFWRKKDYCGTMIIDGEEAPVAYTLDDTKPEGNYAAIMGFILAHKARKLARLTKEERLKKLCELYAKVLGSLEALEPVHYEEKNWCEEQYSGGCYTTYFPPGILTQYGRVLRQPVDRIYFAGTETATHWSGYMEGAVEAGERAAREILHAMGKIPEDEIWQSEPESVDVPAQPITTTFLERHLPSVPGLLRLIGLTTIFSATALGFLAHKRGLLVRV

[2] = biological target: T2, Cholinesterase (Equus caballus, UniProt P81908); experiment: Inhibition of equine serum BChE using butyrylthiocholine as substrate preincubated for 60 mins by Ellman's method
T2 sequence (P81908 whole entry): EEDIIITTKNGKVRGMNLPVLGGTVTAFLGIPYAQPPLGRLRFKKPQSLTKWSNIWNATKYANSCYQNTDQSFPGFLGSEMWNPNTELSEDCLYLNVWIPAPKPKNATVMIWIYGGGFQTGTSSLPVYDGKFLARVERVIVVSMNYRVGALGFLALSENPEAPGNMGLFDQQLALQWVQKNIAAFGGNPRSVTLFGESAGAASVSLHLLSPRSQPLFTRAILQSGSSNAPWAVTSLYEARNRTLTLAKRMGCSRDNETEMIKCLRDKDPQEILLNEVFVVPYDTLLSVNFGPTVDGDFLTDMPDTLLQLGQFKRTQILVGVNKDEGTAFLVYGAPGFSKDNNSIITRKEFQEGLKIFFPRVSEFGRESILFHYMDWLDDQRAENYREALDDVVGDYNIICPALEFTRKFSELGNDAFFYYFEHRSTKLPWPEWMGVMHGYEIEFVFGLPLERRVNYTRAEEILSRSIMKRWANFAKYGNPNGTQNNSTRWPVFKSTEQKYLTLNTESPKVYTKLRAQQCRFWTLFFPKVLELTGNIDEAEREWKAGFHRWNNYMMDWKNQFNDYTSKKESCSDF

[3] = biological target: T3, Amine oxidase [flavin-containing] A (Homo sapiens, UniProt P21397); experiment: Displacement of 14C-5-hydroxytryptamine creatinine disulfate from MAO-A (unknown origin) preincubated for 60 mins followed by substrate addition measured after 30 mins in presence of selegiline by liquid scintillation counting method
T3 sequence (P21397 whole entry): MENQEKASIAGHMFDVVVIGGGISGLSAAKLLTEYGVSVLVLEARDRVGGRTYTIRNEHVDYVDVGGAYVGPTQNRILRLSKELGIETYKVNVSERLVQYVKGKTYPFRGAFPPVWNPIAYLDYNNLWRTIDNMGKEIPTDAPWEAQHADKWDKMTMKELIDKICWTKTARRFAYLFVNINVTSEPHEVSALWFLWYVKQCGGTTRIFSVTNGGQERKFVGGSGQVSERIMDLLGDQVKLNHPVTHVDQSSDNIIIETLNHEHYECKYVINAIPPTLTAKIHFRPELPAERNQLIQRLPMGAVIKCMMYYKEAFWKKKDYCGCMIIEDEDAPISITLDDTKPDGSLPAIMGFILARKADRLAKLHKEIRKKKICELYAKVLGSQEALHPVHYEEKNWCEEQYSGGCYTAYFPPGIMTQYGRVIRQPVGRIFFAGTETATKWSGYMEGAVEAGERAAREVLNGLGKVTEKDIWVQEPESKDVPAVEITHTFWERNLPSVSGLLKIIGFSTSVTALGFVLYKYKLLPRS

[4] = Selectivity index, ratio of IC50 for human red blood cell AChE to IC50 for equine serum BChE
[5] = biological target: T4, Acetylcholinesterase (Rattus norvegicus, UniProt P37136); experiment: Inhibition of Sprague-Dawley rat cortex AChE using acetylthiocholine iodide as substrate incubated for 15 mins in presence of iso-OMPA inhibitor by Ellman's method
T4 sequence (P37136 whole entry): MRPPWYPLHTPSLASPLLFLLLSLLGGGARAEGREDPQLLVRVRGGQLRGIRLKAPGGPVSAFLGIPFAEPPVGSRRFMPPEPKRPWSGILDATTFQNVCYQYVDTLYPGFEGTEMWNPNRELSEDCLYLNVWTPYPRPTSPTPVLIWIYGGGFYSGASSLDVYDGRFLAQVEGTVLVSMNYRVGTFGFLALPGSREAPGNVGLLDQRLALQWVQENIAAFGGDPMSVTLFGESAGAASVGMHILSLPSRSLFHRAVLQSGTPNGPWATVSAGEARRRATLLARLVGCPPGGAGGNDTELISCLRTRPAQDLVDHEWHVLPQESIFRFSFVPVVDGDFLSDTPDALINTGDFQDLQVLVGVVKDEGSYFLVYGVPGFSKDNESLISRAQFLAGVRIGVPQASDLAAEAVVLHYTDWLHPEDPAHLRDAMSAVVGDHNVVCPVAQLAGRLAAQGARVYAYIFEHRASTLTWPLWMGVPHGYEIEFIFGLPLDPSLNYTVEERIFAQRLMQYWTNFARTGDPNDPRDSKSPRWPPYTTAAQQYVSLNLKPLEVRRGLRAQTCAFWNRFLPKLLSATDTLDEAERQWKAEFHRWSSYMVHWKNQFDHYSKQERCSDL

[6] = biological target: T5, Butyrylcholinesterase (Rattus norvegicus, UniProt Q9JKC1); experiment: Inhibition of Sprague-Dawley rat serum BChE using butyrylthiocholine iodide as substrate incubated for 15 mins by Ellman's method
T5 sequence (Q9JKC1 whole entry): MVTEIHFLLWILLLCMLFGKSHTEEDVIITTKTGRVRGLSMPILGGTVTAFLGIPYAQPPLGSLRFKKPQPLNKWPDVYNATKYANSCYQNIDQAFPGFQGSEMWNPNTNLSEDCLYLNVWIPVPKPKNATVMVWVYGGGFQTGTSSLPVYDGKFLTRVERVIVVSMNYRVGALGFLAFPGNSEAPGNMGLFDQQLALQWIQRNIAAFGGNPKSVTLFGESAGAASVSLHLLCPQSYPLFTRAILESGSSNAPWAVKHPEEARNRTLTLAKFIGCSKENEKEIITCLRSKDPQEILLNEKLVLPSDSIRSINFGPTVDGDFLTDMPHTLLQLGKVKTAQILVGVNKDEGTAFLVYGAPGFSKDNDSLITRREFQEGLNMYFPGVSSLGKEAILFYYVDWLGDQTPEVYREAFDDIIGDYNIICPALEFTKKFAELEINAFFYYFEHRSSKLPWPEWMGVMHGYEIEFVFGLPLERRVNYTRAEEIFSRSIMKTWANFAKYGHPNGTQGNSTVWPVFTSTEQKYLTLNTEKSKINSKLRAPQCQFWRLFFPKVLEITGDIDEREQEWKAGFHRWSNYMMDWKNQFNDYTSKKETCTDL

[7] = biological target: Acetylcholinesterase (Electrophorus electricus, UniProt O42275); experiment: Inhibition of electric eel AChE using acetylthiocholine iodide as substrate preincubated for 5 mins followed by substrate addition measured after 2 mins by Ellman's method
Chain of Acetylcholinesterase (Electrophorus electricus, UniProt O42275) (O42275 whole entry): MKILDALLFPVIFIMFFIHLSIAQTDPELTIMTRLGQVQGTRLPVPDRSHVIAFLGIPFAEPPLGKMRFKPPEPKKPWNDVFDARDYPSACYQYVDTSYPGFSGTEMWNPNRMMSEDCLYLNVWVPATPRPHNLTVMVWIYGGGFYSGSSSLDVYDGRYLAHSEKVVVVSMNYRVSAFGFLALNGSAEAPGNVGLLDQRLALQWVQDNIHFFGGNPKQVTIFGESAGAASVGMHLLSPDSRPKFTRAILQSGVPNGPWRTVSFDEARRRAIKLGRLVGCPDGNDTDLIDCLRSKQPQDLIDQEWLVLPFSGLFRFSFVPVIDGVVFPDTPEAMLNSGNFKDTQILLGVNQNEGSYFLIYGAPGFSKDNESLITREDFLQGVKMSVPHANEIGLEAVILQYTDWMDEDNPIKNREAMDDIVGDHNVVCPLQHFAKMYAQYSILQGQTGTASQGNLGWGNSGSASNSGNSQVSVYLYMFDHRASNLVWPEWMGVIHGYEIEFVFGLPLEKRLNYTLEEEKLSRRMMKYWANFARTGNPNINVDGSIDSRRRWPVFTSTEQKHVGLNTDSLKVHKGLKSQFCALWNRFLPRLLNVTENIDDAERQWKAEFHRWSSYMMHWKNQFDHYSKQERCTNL

[8] = biological target: T2, Cholinesterase; experiment: Inhibition of horse BChE using butyrylthiocholine as substrate measured for 5 mins by Ellman's method
[9] = biological target: Acetylcholinesterase (Homo sapiens, UniProt P22303); experiment: Inhibition of recombinant human AChE using acetylthiocholine as substrate preincubated for 20 mins followed by substrate addition measured after 6 mins by Ellman's method
Chain of Acetylcholinesterase (Homo sapiens, UniProt P22303) (P22303 whole entry): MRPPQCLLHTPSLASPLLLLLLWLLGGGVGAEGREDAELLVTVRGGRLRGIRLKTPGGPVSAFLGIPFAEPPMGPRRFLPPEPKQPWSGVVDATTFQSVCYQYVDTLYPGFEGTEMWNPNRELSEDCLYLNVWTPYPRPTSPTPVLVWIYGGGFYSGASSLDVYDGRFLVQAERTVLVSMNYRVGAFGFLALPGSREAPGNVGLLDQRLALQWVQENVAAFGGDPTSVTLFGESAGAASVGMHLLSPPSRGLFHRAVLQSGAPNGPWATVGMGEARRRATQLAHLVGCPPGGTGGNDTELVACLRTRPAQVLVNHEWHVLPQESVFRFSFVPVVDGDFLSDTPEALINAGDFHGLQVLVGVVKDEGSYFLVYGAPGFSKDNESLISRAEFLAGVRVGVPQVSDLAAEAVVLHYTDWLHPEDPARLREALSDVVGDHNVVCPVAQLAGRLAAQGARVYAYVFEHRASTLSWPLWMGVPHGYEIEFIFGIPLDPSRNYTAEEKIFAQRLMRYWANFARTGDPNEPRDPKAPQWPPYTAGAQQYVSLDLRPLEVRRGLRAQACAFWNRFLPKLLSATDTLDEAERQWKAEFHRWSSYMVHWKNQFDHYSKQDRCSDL

[10] = biological target: T5, Butyrylcholinesterase; experiment: Inhibition of rat BChE
[11] = biological target: T4, Acetylcholinesterase; experiment: Inhibition of rat AChE
[12] = biological target: Acetylcholinesterase and butyrylcholinesterase (AChE and BChE) (Rattus norvegicus) (UniProt P37136+Q9JKC1); experiment: Selectivity index, ratio of IC50 for rat AChE to IC50 for rat BChE; assay type: protein assay
Chain of Acetylcholinesterase and butyrylcholinesterase (AChE and BChE) (Rattus norvegicus) (Q9JKC1 1-597, one chain of several): as the sequence (Q9JKC1 whole entry) above

Compound: C#CCN(C)C(C)Cc1cccc(OC(=O)N(C)CC)c1 (configuration not stated)
- IC50 [1]: 100 nM
- IC50 [2]: 1500 nM
- IC50 [3]: 120 nM
- Ratio IC50 [4]: 153

Compound: O=C(Oc1ccc(/C=C/c2cc(OC(=O)N3CCN(Cc4ccccc4)CC3)cc(OC(=O)N3CCN(Cc4ccccc4)CC3)c2)cc1)N1CCN(Cc2ccccc2)CC1
- IC50 [5]: 4110 nM
- IC50 [6]: 1130 nM

Compound: CCOC(=O)Nc1ccc(N2CCN(c3ccccc3OC)CC2)cc1
- IC50 [7]: 93.5 nM

Compound: O=C(Nc1ccccc1)Oc1cccc(CN2CCN(c3ccccc3)CC2)c1
- IC50 [8]: 2000 nM

Compound: CC[C@@]1(c2cccc(OC(=O)Nc3ccccc3)c2)CCCCN(C)C1
- IC50 [9]: 274 nM

Compound: CN(C)C(=O)Oc1cc(OC(=O)N(C)C)cc(C(O)CNC(C)(C)C)c1 (configuration not stated) [BAMBUTEROL]
- IC50 [10]: 3 nM
- IC50 [11]: 30000 nM
- Ratio IC50 [12]: 10000
